Assay results: patent US20090036474A1, “Quinazoline derivatives for use against cancer” (priority 2004, published 2009)

Molecular target: T1, KDR tyrosine kinase (Homo sapiens, UniProt P35968)
T1 construct: a DNA fragment encoding most of the cytoplasmic domain, commencing with methionine 806 and including the termination codon; made in house; host or cells: Sf9 insect cells (recombinant baculovirus)
Assay: In vitro enzyme assay (ELISA), Test (a), KDR
Assay type: biochemical
Settings: ATP 8 μM, read-out: IC50 versus KDR tyrosine kinase
Protocol: The ability of test compounds to inhibit the phosphorylation of a tyrosine containing polypeptide substrate by the tyrosine kinase enzymes PDGFRα, PDGFRβ and KDR was assessed using conventional ELISA assays. DNA encoding the PDGFRα, PDGFRβ or KDR receptor cytoplasmic domains may be obtained by total gene synthesis (International Biotechnology Lab., 1987, 5(3), 19-25) or by cloning. The DNA fragments may be expressed in a suitable expression system to obtain polypeptide with tyrosine kinase activity. For example, PDGFRα, PDGFRβ and KDR receptor cytoplasmic domains, obtained by expression of recombinant protein in insect cells, can be shown to display intrinsic tyrosine kinase activity. In the case of the VEGF receptor KDR (Genbank Accession No. L04947), a DNA fragment encoding most of the cytoplasmic domain, commencing with methionine 806 and including the termination codon may be cloned into a baculovirus transplacement vector [for example pAcYM1 (see The Baculovirus Expression System: A Laboratory Guide, L. A. King and R. D. Possee, Chapman and Hall, 1992) or pAc360 or pBlueBacHis (available from Invitrogen Corporation)]. This recombinant construct may be co-transfected into insect cells [for example Spodoptera frugiperda 21(Sf21) or Spodoptera frugiperda 9(Sf9)] with viral DNA (for example Pharmingen BaculoGold) to prepare recombinant baculovirus. Details of the methods for the assembly of recombinant DNA molecules and the preparation and use of recombinant baculovirus can be found in standard texts, for example Sambrook et al., 1989, Molecular cloning—A Laboratory Manual, 2nd edition, Cold Spring Harbour Laboratory Press and O'Reilly et al., 1992, Baculovirus Expression Vectors—A Laboratory Manual, W. H. Freeman and Co, New York).
For expression, Sf9 cells were infected with plaque-pure KDR recombinant virus and harvested 48 hours later. […]

T1 sequence (P35968 786-1356 limits assumed): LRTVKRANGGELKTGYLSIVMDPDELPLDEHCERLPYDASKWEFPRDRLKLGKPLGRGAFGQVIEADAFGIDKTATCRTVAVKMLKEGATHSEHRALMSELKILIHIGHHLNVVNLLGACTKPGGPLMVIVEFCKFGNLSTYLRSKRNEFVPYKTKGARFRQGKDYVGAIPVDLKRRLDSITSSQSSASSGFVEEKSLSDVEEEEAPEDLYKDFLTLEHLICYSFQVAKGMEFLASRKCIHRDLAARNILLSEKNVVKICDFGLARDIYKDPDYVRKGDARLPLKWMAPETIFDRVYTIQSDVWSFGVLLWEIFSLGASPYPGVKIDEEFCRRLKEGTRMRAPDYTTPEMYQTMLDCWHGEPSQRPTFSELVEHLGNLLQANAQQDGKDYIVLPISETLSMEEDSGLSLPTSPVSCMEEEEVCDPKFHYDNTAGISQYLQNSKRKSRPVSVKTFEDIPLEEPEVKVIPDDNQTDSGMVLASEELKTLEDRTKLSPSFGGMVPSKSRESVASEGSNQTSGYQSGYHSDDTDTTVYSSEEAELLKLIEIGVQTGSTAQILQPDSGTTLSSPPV

IC50: ~1 nM
SMILES: COc1cc2ncnc(Oc3cnn(CC(=O)Nc4cccc5c4OCO5)c3)c2cc1OC [Example 2, N-(2,3-methylenedioxyphenyl)-2-[4-(6,7-dimethoxyquinazolin-4-yloxy)pyrazol-1-yl]acetamide]
